These results are taken from patent publication US5242900A (priority 1991, dated 1993).

One data set relates to pancreatectomized dogs. Put plainly: Subcutaneous studies in pancreatectomized (diabetic) dogs: plasma glucose. In kind it is in vivo.
For the next data set, the system named is normal dog. The class given is in vivo.

Protocol for normal dog: (§1) Nine dogs of initially normal body weight were studied in accordance with Institutional Guidelines for animal experiments. Exteriorized, indwelling catheters were placed for intra-portal insulin administration and peripheral venous blood sampling. All were studied initially as normals. Subsequently all were pancreatectomized; five were autografted and the remaining four were treated pharmacologically both with the modified insulins described above in Example 1 and the corresponding unmodified conventional extracted insulins. Small venous blood samples were drawn via the indwelling blood sampling catheter at 30-60 minute intervals for plasma glucose determination in the subcutaneous experiments and at -10,0,3,6,10,20,30,60 minutes in the intravenous experiments. […] All animals were conscious and ambulatory during the studies.
(§2) Plasma glucose was determined using a glucose analyzer (Beckman Instruments, Fullerton, CA). IRI was assayed using porcine insulin standard and ^125 I porcine insulin tracer (Novo Research Institute, Gentofte, Denmark), antiserum and a dextran-coated charcoal separation technique (Albisser et al, Diabetes 35:97-100, 1986). In the studies using porcine phosphorylated insulin, the above assay was performed as for porcine insulin, but using equimolar standards of phosphorylated insulin. Parallel standard curves were obtained. […] All values were expressed as mean ±SEM unless otherwise indicated.
Protocol for pancreatectomized dogs: as §1
At the conclusion of experimental protocols, it was verified that all nine of the animals were diabetic by extirpating the grafts (from the transplant recipients) or withdrawing insulin therapy (from the pancreatectomized animals).
as §2
Subsequent to pancreatectomy the animals were studied repeatedly, now in the post-absorptive, hyperglycemic state of 14-20 mM, because the conventional insulin depot administered the previous day had become depleted.

On to “phosphorylated insulin: porcine insulin chemically phosphorylated with POCl3/phosphoric acid in DMF; 3 or 5 negatively charged adducts; about 5-10% unmodified”, for which, in the data set with pancreatectomized dogs (dog, in vivo, sc), the early hypoglycemia entry is “never occurred” and the “lipo-genesis (fat-like deposits) in the areas of repeated subcutaneous injections” value is listed as “palpable fat-like deposits”. Also, the time euglycemia maintained in the data set with pancreatectomized dogs (fasted pancreatectomized dog, starting 14-20 mM, subcutaneous, 30-150 nMol) was in the range of 2 to 6 h. In the data set on pancreatectomized dogs (pancreatectomized dog, subcutaneous, 4-fold larger doses), the “glucose lowering effect at larger dose” value is “occurred more rapidly and lasted longer”. Further, the “plasma glucose lowered to” value in the data set on pancreatectomized dogs (pancreatectomized dog, subcutaneous, approximately 4 nMol/kg) lay within 4.5 to 6.0 mM. Besides, in the data set on pancreatectomized dogs (pancreatectomized dog, subcutaneous, smaller dosage repeated at 6-8h intervals), the “plasma glucose with repeated injections” value is “maintain plasma glucose in the range normal for postabsorptive dogs”. For the same substance, the “body weight regained after loss following pancreatectomy” value with pancreatectomized dogs (pancreatectomized dogs) was 1 to 3 kg. Besides, the “first pass extraction by the liver compared with insulin” value with normal dog (dog, in vivo) is reported as “not extracted to the same extent”. Moreover, the hypoglycemic effect entry with normal dog (normal dog, intra-portal, 2-fold larger dose) is given as “without major hypoglycemic effect”. Further, the “drop in blood glucose” value in the data set on normal dog (normal dog, intra-portal, at 15 minutes) amounted to 0.2 mM. Also, in the data set with normal dog (normal dog, intra-portal, double dosage), the “decrease in plasma glucose” value is listed as “about 0.5 mM”.
